In patent US20200197409A1, “HEPATITIS B VIRUS SURFACE ANTIGEN INHIBITOR” (FUJIAN COSUNTER PHARMACEUTICAL CO., LTD., priority 2017, published 2020):
Where two headings read alike, the source gives them in different places.

Tests used:
CYP2C19 = target: T1, CYP2C19 (Homo sapiens, UniProt P33261); assay: Inhibition of cytochrome P450 isoenzyme in human liver microsomes; format: in vitro ADME
T1 construct: from tissue; host or cells: human liver microsomes
Method: (§1) The inhibitory effect of the test compound on different subtypes of human cytochrome P450 isoenzyme was determined. Working solutions of the test compound, standard inhibitor (100×final concentration) and a mixed substrate were prepared. Microsomes frozen in a −80° C. refrigerator were thawed. 2 μL of test compound and the standard inhibitor solution were added into the corresponding wells, while 2 μL of the corresponding solvent was added into the non-inhibitor control well (NIC) and the blank control well (Blank). 20 μL of the mixed substrate solution was added into the corresponding wells except for the Blank well (20 μL of PB was added into the Blank well). Human liver microsomes solution was prepared (it was put back to the refrigerator immediately after use and the date was marked) and 158 μL of human liver microsomes solution were added into all of the wells immediately. The sample plate was pre-incubated under a 37° C. water bath, during which coenzyme factor (NADPH) solution was prepared immediately. After 10 minutes, 20 μL of coenzyme factor (NADPH) solution was added into all of the wells. After the sample plate was shaken evenly, it was incubated under a 37° C. water bath for 10 minutes. 400 μL of cold acetonitrile solution (the internal standard was 200 ng/mL Tolbutamide and Labetalol) was added to terminate the reaction at the corresponding time. After the sample plate was well-mixed, it was centrifuged at 4,000 rpm for 20 minutes to precipitate the protein. 200 μL of the supernatant was collected and added to 100 μL of water, and subjected to LC/MS/MS measurement after being shaken evenly.

CYP2C9 = target: T2, CYP2C9 (Homo sapiens, UniProt P11712); assay: as above; format: in vitro ADME
T2 construct: from tissue; host or cells: human liver microsomes
Method: as §1

CYP3A4-M = target: T3, CYP3A4-M (Homo sapiens, UniProt P08684); assay: as above; format: in vitro ADME
T3 construct: from tissue; host or cells: human liver microsomes
Method: as §1

[1] = Microsomal metabolism stability, rat; format: in vitro ADME; conditions: rat liver microsomes 0.5 mg/mL, 1 μM, NADPH, 37° C.
Method: The microsomal metabolism stability of the test compound (Embodiment 6) in three species was determined. 1 μM test compound and microsomes (0.5 mg/mL) supplemented with NADPH regeneration system were incubated at 37° C. The positive controls were testosterone (3A4 substrate), propafenone (2D6 substrate) and diclofenac (2C9 substrate), respectively. The positive control and microsomes (0.5 mg/mL) supplemented with NADPH regeneration system were incubated at 37° C. Samples at different time points (0, 5, 10, 20, 30, and 60 minutes) were mixed directly with cold acetonitrile containing an internal standard to terminate the reaction. The compound and microsomes were incubated for 60 minutes without the NADPH regeneration system. One parallel was set at each time point (n=1). The samples were analyzed by LC/MS/MS. The concentration of the compound was indicated by the ratio of the peak area of the analyte to the peak area of the internal standard.

[2] = Single-dose pharmacokinetic study on rat; format: in vivo, SD rats
HBV = assay: Anti-HBV activity on the hepatitis B virus mouse model (AAV-HBV); format: in vivo, C57BL/6 mice; conditions: for HBsAg content in the plasma of the mice: PO
Method: The AAV vector-mediated HBV infected mouse model is a fast and efficient HBV model. Using the high hepatotropism of the AAV vector, the recombinant adeno-associated type 8 virus carrying 1.3 copies of the HBV genome (rAAV8-1.3HBV) is injected into the tail vein of mice, which can efficiently introduce the carried 1.3 copy HBV genome into hepatocytes. Due to the characteristics of the AAV viral vector, the vector mediated by it can express for a long time. The AAV/HBV model can continuously replicate HBV DNA and express HBsAg and HBeAg in the liver of the mice.
The anti-HBV efficacy of the test compound in vivo was evaluated by determining the content of HBsAg in the serum of the mice after treatment with the test compound on AAV/HBV mouse mode.
C57BL/6 mice, 10% HP-f-CD as vehicle, reference compound TDF (Tenofovir), test compound, recombinant virus rAAVS-1.3HBV, main reagents of the experiment including QIAamp96 DNA kit and TaqMan® Universal PCR Master Mix, Hepatitis B Virus Surface Antigen Detection Kit, instruments including: centrifuge (Beckman Allegra X-15R), tissue grinder (QIAGEN-Tissue lyser II) and spectrophotometer (Thermo-NANODROP 1000).
a) All mice were orally administered on the 28th day after the virus injection, and the day was set as day 0. Submaxillary blood of all mice was collected for serum collection before administration. The mice were administered once a day for four weeks.
b) Submaxillary blood of all mice was collected for serum collection twice a week, the volume of the blood collected each time was approximately 100 μL.
c) On the 28th day, all mice were euthanized and the blood was collected from the heart for serum collection.
The content of HBsAg in the serum of the mice was determined by ELISA. The experimental procedure refers to the specification of HBsAg ELISA kit.
a) The anti-HBV activity of the test compound on AAV/HBV mice model was evaluated by determining the content of HBsAg in the plasma of the mice.

T2 sequence (P11712 whole entry): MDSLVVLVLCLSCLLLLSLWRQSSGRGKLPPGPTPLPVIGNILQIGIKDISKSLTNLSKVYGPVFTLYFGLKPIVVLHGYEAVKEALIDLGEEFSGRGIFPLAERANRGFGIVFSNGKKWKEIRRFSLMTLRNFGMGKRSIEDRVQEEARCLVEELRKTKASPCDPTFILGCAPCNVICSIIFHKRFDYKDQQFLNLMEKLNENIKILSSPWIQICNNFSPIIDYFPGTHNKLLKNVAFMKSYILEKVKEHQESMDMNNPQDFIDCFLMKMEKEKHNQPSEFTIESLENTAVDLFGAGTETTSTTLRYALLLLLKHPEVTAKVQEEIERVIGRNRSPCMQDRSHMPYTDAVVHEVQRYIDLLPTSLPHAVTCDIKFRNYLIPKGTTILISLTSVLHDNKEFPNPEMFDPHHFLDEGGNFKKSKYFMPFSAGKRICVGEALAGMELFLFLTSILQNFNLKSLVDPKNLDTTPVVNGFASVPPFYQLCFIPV
T1 sequence (P33261 whole entry): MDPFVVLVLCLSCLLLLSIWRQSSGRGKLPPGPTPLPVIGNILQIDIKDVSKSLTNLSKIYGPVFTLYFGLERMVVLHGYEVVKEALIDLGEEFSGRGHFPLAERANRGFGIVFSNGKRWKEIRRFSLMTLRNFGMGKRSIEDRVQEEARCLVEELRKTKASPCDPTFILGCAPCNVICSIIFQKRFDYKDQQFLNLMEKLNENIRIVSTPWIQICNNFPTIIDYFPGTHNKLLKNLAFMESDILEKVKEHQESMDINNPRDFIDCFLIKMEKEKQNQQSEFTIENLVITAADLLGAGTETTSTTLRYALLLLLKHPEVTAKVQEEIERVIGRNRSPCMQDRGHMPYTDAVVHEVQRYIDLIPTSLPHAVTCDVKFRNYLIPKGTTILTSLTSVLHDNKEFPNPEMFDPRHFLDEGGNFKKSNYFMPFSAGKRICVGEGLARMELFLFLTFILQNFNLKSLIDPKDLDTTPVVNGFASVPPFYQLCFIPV
T3 sequence (P08684 whole entry): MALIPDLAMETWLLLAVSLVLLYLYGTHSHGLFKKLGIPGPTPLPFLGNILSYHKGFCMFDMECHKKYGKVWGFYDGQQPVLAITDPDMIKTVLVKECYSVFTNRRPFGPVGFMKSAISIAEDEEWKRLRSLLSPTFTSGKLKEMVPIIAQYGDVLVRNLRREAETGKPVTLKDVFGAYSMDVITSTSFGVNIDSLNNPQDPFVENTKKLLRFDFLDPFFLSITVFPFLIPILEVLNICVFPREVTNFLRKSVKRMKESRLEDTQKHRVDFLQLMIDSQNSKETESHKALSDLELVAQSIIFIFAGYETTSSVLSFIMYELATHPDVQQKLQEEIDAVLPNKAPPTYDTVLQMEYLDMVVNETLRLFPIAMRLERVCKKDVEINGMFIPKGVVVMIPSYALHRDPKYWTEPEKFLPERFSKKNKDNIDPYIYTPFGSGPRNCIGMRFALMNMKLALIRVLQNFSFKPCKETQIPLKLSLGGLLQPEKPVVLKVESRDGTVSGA

## COCCCOc1cc2c(cc1OC)-c1cc(=O)c(C(=O)O)cn1[C@H](C(C)(C)C)CO2 [Embodiment 6]
CYP2C19
  IC50: > 50 µM
CYP2C9
  IC50: > 50 µM
CYP3A4-M
  IC50: > 50 µM
[1]
  remaining ratio at T=60 min: 113.0%
[2]; IV: 1 mg/kg PO: 2 mg/kg
  Apparent distribution volume: 1.72 L/kg
  Bioavailability: 71.1%
  Highest concentration: 659 nM
[2]; male, SD, plasma, IV: 1 mg/kg PO: 2 mg/kg
  half-life: 1.98 h
[2]; male, SD, plasma, IV: 1 mg/kg PO: 2 mg/kg, read-out: Clearance rate
  clearance: 28.1 mL/min/kg
[2]; male, SD, plasma, IV: 1 mg/kg, read-out: AUC0-last (Intravenous injection)
  AUC(0-t): 1.36 µM·h
[2]; male, SD, plasma, PO: 2 mg/kg, read-out: AUC0-last (Oral)
  AUC(0-t): 1.83 µM·h
HBV; 3, 10, 30 mg/kg PO once a day for four weeks
  effect on the content of HBsAg on the AAV/HBV mouse model (in words): significantly reduce
HBV; day 4, 3 mg/kg
  HBsAg content in the plasma of the mice: 3.68 IU/mL
HBV; day 4, 10 mg/kg
  HBsAg content in the plasma of the mice: 3.56 IU/mL
HBV; day 4, 30 mg/kg
  HBsAg content in the plasma of the mice: 3.38 IU/mL
HBV; day 7, 3 mg/kg
  HBsAg content in the plasma of the mice: 3.70 IU/mL
HBV; day 7, 10 mg/kg
  HBsAg content in the plasma of the mice: 3.69 IU/mL
HBV; day 7, 30 mg/kg
  HBsAg content in the plasma of the mice: 3.44 IU/mL
HBV; day 11, 3 mg/kg
  HBsAg content in the plasma of the mice: 3.76 IU/mL
HBV; day 11, 10 mg/kg
  HBsAg content in the plasma of the mice: 3.92 IU/mL
HBV; day 11, 30 mg/kg
  HBsAg content in the plasma of the mice: 3.64 IU/mL
HBV; day 14, 3 mg/kg
  HBsAg content in the plasma of the mice: 3.70 IU/mL
HBV; day 14, 10 mg/kg
  HBsAg content in the plasma of the mice: 3.61 IU/mL
HBV; day 14, 30 mg/kg
  HBsAg content in the plasma of the mice: 3.40 IU/mL
HBV; day 18, 3 mg/kg
  HBsAg content in the plasma of the mice: 3.85 IU/mL
HBV; day 18, 10 mg/kg
  HBsAg content in the plasma of the mice: 3.90 IU/mL
HBV; day 18, 30 mg/kg
  HBsAg content in the plasma of the mice: 3.55 IU/mL
HBV; day 21, 3 mg/kg
  HBsAg content in the plasma of the mice: 3.78 IU/mL
HBV; day 21, 10 mg/kg
  HBsAg content in the plasma of the mice: 3.75 IU/mL
HBV; day 21, 30 mg/kg
  HBsAg content in the plasma of the mice: 3.46 IU/mL
HBV; day 25, 3 mg/kg
  HBsAg content in the plasma of the mice: 3.76 IU/mL
HBV; day 25, 10 mg/kg
  HBsAg content in the plasma of the mice: 3.83 IU/mL
HBV; day 25, 30 mg/kg
  HBsAg content in the plasma of the mice: 3.37 IU/mL
HBV; day 28, 3 mg/kg
  HBsAg content in the plasma of the mice: 3.96 IU/mL
HBV; day 28, 10 mg/kg
  HBsAg content in the plasma of the mice: 3.87 IU/mL
HBV; day 28, 30 mg/kg
  HBsAg content in the plasma of the mice: 3.53 IU/mL
HBV; day −1, 3 mg/kg
  HBsAg content in the plasma of the mice: 4.54 IU/mL
HBV; day −1, 10 mg/kg
  HBsAg content in the plasma of the mice: 4.51 IU/mL
HBV; day −1, 30 mg/kg
  HBsAg content in the plasma of the mice: 4.48 IU/mL
HBV; once a day for four weeks
  tolerance of the mice during the course of treatment: good tolerance
HBV; once a day for four weeks, FIG. 3
  changes of the body weight of the mice: better than RG7834
